# Molecular target: T1, pure recombinant PKM2 (Homo sapiens, UniProt P14618)
# T1 construct: gene PKM; PKM2 cDNA in pQE-30, 6xHis tag (removal not mentioned), expressed in E. coli M15 (pREP4), Ni-NTA purified
# Assay: LDH-coupled pyruvate kinase assay, NADH absorbance […] nm
# Format: biochemical
# Conditions: 0.2 mM PEP, 2 mM ADP, 5 mM MgCl2, 100 mM KCl, pH 7.4, 37 °C; no inhibitor mixture; allosteric activator
# T1 sequence (P14618 2-531): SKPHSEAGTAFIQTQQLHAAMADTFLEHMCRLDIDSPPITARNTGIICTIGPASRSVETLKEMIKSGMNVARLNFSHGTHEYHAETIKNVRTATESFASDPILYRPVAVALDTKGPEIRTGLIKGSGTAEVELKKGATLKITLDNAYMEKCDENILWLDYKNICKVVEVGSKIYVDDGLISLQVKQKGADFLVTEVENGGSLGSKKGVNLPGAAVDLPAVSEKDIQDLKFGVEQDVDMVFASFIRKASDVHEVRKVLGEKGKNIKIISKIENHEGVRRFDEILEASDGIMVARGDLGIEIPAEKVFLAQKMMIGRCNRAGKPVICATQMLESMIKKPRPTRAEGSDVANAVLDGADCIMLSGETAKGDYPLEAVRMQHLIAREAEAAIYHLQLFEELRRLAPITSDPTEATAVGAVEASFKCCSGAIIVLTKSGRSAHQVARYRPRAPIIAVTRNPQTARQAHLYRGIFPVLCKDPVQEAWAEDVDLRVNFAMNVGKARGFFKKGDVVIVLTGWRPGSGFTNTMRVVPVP
row,Compound,AC50 [µM]
1,O=P(O)(O)OC[C@H]1OC(O)(COP(=O)(O)O)[C@@H](O)[C@@H]1O (stereo partly drawn) [FBP],0.0434 ± 0.0217
2,N[C@@H](CO)C(=O)O [Serine],339 ± 123

# Molecular target: T1, pure recombinant PKM2
# Assay: as above
# Format: biochemical
# Conditions: 0.2 mM PEP, 2 mM ADP, 5 mM MgCl2, 100 mM KCl, pH 7.4, 37 °C; no FBP; allosteric inhibitor
row,Compound,IC50 [µM]
1,N[C@@H](Cc1ccccc1)C(=O)O [Phenylalanine],40.9 ± 13.4
2,C[C@H](N)C(=O)O [Alanine],227 ± 174
3,CC(C)[C@H](N)C(=O)O [Valine],373 ± 175
4,N[C@@H](Cc1c[nH]c2ccccc12)C(=O)O [Tryptophan],254 ± 104

# From article doi:10.1101/2022.07.07.499167v1, “The thermodynamic state of aerobic glycolytic flux plays a critical role in stabilizing aerobic glycolytic flux of cancer cells” (biorxiv, 2022)
